Assay results taken from patent US6825230B2, “Spiro and dispiro 1,2,4-trixolane antimalarials” (Medicines for Malaria Venture MMV, priority 2002, dated 2004).
In brackets after ≈: the same amount, converted by molar mass. Where a name gives a salt, the structure may show the parent alone. Read-outs that look alike come from different tables or passages of the source.

Columns and labels:
[1] = system: chloroquine-sensitive NF54 strain of P. falciparum; experiment: In vitro antimalarial semiautomated microdilution assay ([3H]-hypoxanthine incorporation), NF54 strain; type: cell-based, Plasmodium falciparum; conditions: Plasmodium falciparum
Outline: (§1)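 Asynchronous stock-culture parasites (intraerythrocytic forms), serial compound dilutions; readout [3H]-hypoxanthine uptake; IC50 via Logit regression.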

[2] = system: chloroquine-resistant K1 strain of P. falciparum; experiment: In vitro antimalarial semiautomated microdilution assay ([3H]-hypoxanthine incorporation), K1 strain; type: cell-based, Plasmodium falciparum; conditions: Plasmodium falciparum
Outline: as §1

[3] = system: ANKA strain of P. berghei; experiment: Single dose STI in vivo screen in infected mice; set-up: species or system Plasmodium berghei; conditions: for Survival (days) 10 mg/kg po: single 10 mg/kg po in 3% ethanol and 7% Tween 80; for Survival (days) 10 mg/kg po / Survival (days) 10 mg/kg SSV po / Survival (days) 10 mg/kg sc: untreated 6-7 days; for Activity (%) 10 mg/kg po: single 10 mg/kg po in 3% ethanol and 7% Tween 80 on day 1 post-infection; for Activity (%) 10 mg/kg po / Activity (%) 10 mg/kg SSV po / Activity (%) 10 mg/kg sc / Activity (%) 3 mg/kg SSV po: percent reduction in parasitemia on day 3; for Survival (days) 10 mg/kg SSV po: single 10 mg/kg po in SSV; for Activity (%) 10 mg/kg SSV po: single 10 mg/kg po in standard suspending vehicle (SSV) on day 1 post-infection; for Survival (days) 10 mg/kg sc: single 10 mg/kg sc in 3% ethanol and 7% Tween 80; for Activity (%) 10 mg/kg sc: single 10 mg/kg sc in 3% ethanol and 7% Tween 80 on day 1 post-infection; for Survival (days) 3 mg/kg SSV po / Activity (%) 3 mg/kg SSV po: single 3 mg/kg po in SSV
[4] = chloroquine-sensitive NF54 strain, 72 h incubation, read-out: IC50 (ng/ml) NF54
[5] = chloroquine-resistant K1 strain, 72 h incubation, read-out: IC50 (ng/ml) K1
[6] = NF54, 72 h, read-out: IC50 (ng/ml) NF54, chloroquine-sensitive NF54 strain, 72 h incubation
[7] = K1, 72 h, read-out: IC50 (ng/ml) K1, chloroquine-resistant K1 strain, 72 h incubation

Row | Structure (SMILES) | IC50 [1, 4] [ng/mL] | IC50 [2, 5] [ng/mL] | Survival (days) 10 mg/kg po [3] | Activity (%) 10 mg/kg po [3] [%] | Survival (days) 10 mg/kg SSV po [3] | Activity (%) 10 mg/kg SSV po [3] | Survival (days) 10 mg/kg sc [3] | Activity (%) 10 mg/kg sc [3] [%] | IC50 [1, 6] [ng/mL] | IC50 [2, 7] [ng/mL] | Survival (days) 3 mg/kg SSV po [3] [days] | Activity (%) 3 mg/kg SSV po [3] [%]
1 | O=C(NC[C@H]1CC[C@]2(CC1)OOC1(O2)C2CC3CC(C2)CC1C3)c1cccc[n+]1[O-] (stereo partly shown) [OZ270] | 1.3 (≈ 3.14 nM) | 0.85 (≈ 2.05 nM) | 13.7 days | 99.17 | 12.3 days | 99.47% | 11.3 days | 99.81 | – | – | – | –
2 | O=C(O)c1ccc([C@H]2CC[C@]3(CC2)OOC2(O3)C3CC4CC(C3)CC2C4)cc1 (stereo partly shown) [OZ165] | – | – | 6.3 days | 18 | 6.0 days | 3% | 5.7 days | 9 | > 10 | 39 (≈ 101 nM) | – | –
3 | O=C(O)c1ccc(C[C@H]2CC[C@]3(CC2)OOC2(O3)C3CC4CC(C3)CC2C4)cc1 (stereo partly shown) [OZ214] | > 10 | > 10 | 6.3 days | 44 | 7.3 days | 54% | 7.7 days | 65 | – | – | – | –
4 | c1cnn(C[C@H]2CC[C@]3(CC2)OOC2(O3)C3CC4CC(C3)CC2C4)c1 (stereo partly shown) [OZ211] | 1.2 (≈ 3.48 nM) | 1 (≈ 2.9 nM) | 8.0 days | 82 | 7.3 days | 78% | 8.7 days | 99.90 | – | – | – | –
5 | O=C(C[C@H]1CC[C@]2(CC1)OOC1(O2)C2CC3CC(C2)CC1C3)N1CCCCC1 (stereo partly shown) [OZ218] | 3 (≈ 7.7 nM) | 2 (≈ 5.13 nM) | 10.0 days | 98 | 14.3 days | 99.30% | 9.0 days | 99.68 | – | – | – | –
6 | CCS(=O)(=O)CCN1CCC2(CC1)OOC1(O2)C2CC3CC(C2)CC1C3 (stereo not shown) [OZ200, Adamantane-2-spiro-3′-8′-[2′-(ethylsulfonyl)ethyl]-1′,2′,4′-trioxa-8′-azaspiro[4.5]decane] | – | – | 7.0 days | 81 | 7.3 days | 78% | 8.0 days | 92 | 2.9 (≈ 7.52 nM) | 1 (≈ 2.59 nM) | – | –
7 | NOC[C@H]1CC[C@]2(CC1)OO[C@]1(O2)C2CC3CC(C2)CC1C3 [OZ334] | – | – | – | – | 6.8 days | 47% | – | – | 20 (≈ 64.6 nM) | 28 (≈ 90.5 nM) | 6.6 | 13
8 | N=C(N)N1CCC2(CC1)OOC1(O2)C2CC3CC(C2)CC1C3 (stereo not shown) [OZ191, Adamantane-2-spiro-3′-8′-amidino-1′,2′,4′-trioxa-8′-azaspiro[4.5]decane hydrochloride] | – | – | 5.7 days | 7 | 5.7 days | 5% | 6.0 days | 17 | > 10 | 6 | – | –
9 | O=C(O)c1cccc([C@H]2CC[C@]3(CC2)OOC2(O3)C3CC4CC(C3)CC2C4)c1 (stereo partly shown) [OZ198] | – | – | 5.7 days | 4 | 6.0 days | 6% | 5.7 days | 6 | > 10 | > 10 | – | –
10 | C(CNC1CCC2(CC1)OOC1(O2)C2CC3CC(C2)CC1C3)CN1CCOCC1 (stereo not shown) [OZ161] | – | – | 7.0 days | 59 | 6.7 days | 46% | 12.7 days | 99.96 | 0.5 (≈ 1.23 nM) | 0.4 (≈ 0.984 nM) | – | –
11 | NC(=O)C(=O)NC[C@H]1CC[C@]2(CC1)OOC1(O2)C2CC3CC(C2)CC1C3 (stereo partly drawn) [OZ268, N-(cis-Adamantane-2-spiro-3′-1′,2′,4′-trioxaspiro[4.5]decane-8′-methyl)oxamide] | 0.71 (≈ 1.95 nM) | 0.44 (≈ 1.21 nM) | 9.3 days | 99.86 | 13.3 days | 99.47% | 9.7 days | 99.92 | – | – | – | –
12 | O=C(N1CCCC1)N1CCC2(CC1)OOC1(O2)C2CC3CC(C2)CC1C3 (stereo not shown) [OZ203, Adamantane-2-spiro-3′-8′-(1′-pyrrolidinylcarbonyl)-1′,2′,4′-trioxa-8′-azaspiro[4.5]decane] | – | – | 7.3 days | 87 | 8.7 days | 99.42% | 9.7 days | 99.72 | 6.7 (≈ 18.5 nM) | 3.9 (≈ 10.8 nM) | – | –
13 | CN(C)C(=O)N[C@H]1CC[C@]2(CC1)OOC1(O2)C2CC3CC(C2)CC1C3 (stereo partly shown) [OZ187] | – | – | 7.7 days | 77 | 10.0 days | 94% | 7.0 days | 77 | 6.8 (≈ 19.4 nM) | 4 (≈ 11.4 nM) | – | –
14 | O=S(=O)(C[C@H]1CC[C@]2(CC1)OO[C@]1(O2)C2CC3CC(C2)CC1C3)c1ncccn1 [OZ299] | – | – | – | – | 6.6 days | 36% | – | – | 6.3 (≈ 15 nM) | 6.8 (≈ 16.2 nM) | 6.4 | 0
15 | O=C(C[C@H]1CC[C@]2(CC1)OO[C@]1(O2)C2CC3CC(C2)CC1C3)Nc1nnn[nH]1 [OZ278] | – | – | – | – | 7.3/ND days | 56/ND % | – | – | 39 (≈ 100 nM) | 23 (≈ 59.1 nM) | – | –
16 | O=C(C[C@H]1CC[C@]2(CC1)OOC1(O2)C2CC3CC(C2)CC1C3)N1CCN(c2ccccc2)CC1 (stereo partly shown) [OZ244] | 4.2 (≈ 9 nM) | 4 (≈ 8.57 nM) | 5.7 days | 6 | 5.3 days | 0% | 6.3 days | 18 | – | – | – | –
17 | CCOC(=O)c1ccc(C2(c3ccc(C(=O)OCC)cc3)OOC3(O2)C2CC4CC(C2)CC3C4)cc1 (stereo not shown) [OZ125, Adamantane-2-spiro-3′-5′,5′-bis[4′-(ethoxycarbonyl)phenyl]-1′,2′,4′-trioxolane] | > 100 | 68 (≈ 138 nM) | 5.3 days | 8 | 5.7 days | 0% | 6.0 days | 0 | – | – | – | –
18 | O=[N+]([O-])c1ccc(C2(c3ccccc3)OOC3(O2)C2CC4CC(C2)CC3C4)cc1 (stereo not shown) [OZ95, Adamantane-2-spiro-3′-5′-(4′-nitrophenyl)-5′-phenyl-1′,2′,4′-trioxolane] | – | – | 6.0/6.0/6.0 days | 31 | 6.0/6.0/6.0 days | 0% | 6.0/6.0/6.0 days | 49 | 1.3 (≈ 3.3 nM) | 2.8 (≈ 7.12 nM) | – | –
